In patent US9682961B2, “Quinazoline derivative” (CARNA BIOSCIENCES, INC., priority 2013, dated 2017) one finds IC50 data, which are given here for 25 molecules.

Some results are limits rather than exact numbers.

The subject of the assay is Wnt/β-catenin signaling pathway. The assay is described as follows: TCF-luciferase reporter gene assay (Wnt-3a stimulated HEK 293 cells). In kind it is cell-based. The settings on record: Homo sapiens, HEK293, Wnt-3a stimulation, read-out: Inhibitory activity against the Wnt/β-catenin signaling pathway. Here is the method:
Evaluation of inhibitory activity of the compounds of the present invention against the Wnt/β-catenin signaling pathway was performed by evaluating the inhibitory activity of the compounds of the present invention against the Wnt/β-catenin signaling pathway activated by the Wnt-3a ligand using a commercially available TCF-luciferase reporter gene assay system.
In a T75 flask, HEK 293 cells (ATCC No. CRL-1573) were added to a DMEM medium (manufactured by NACALAI TESQUE, INC., No. 08459-35) supplemented with 10% FBS (AusGeneX PTY LTD.) and 1% Penicillin/Streptomycin (NACALAI TESQUE, INC.). The cells in the flask were cultured in a 5% CO2 incubator.
The cultured HEK 293 cells were diluted with a DMEM medium supplemented with only 10% FBS so as to have a cell concentration of 2×10^5 cells/mL, and 100 μL each of the diluted cells were seeded into respective wells of 96-well plates (PerkinElmer Inc., ViewPlate No. 6005181), followed by culturing overnight in the 5% CO2 incubator. To an OptiMEM medium (Invitrogen® No. 11058), pGL4.49 [luc2p/TCF-LEF-RE/Hygro] plasmid DNA (Promega Corporation) and FuGENE® HD (Promega No. E2691) were added so as to have concentrations of 1 μg/mL and 3 μg/mL, respectively, to prepare a transfection solution as described in the protocol attached to the reagent. To the respective wells containing the HEK 293 cells cultured overnight, 100 μL each of the transfection solution was added gently, followed by culturing overnight in the 5% CO2 incubator to perform transfection.
To a DMEM medium, 0.5% charcoal/dextran treated Fetal Bovine Serum (Thermo Scientific No. SH30068.02) and LiCl (Sigma-Aldrich No. L9650) were added to prepare a LiCl-containing medium (final concentration of LiCl: 10 mM). The medium in the respective wells of the HEK 293 cells cultured overnight and transfected with a reporter gene was removed by decantation. The LiCl-containing medium (90 μL) was added gently to each well, followed by culturing overnight in the 5% CO2 incubator.
A DMSO stock solution of the compound to be tested was diluted 100-fold with a LiCl-containing medium so as to prepare a solution of the compound to be tested, which is 10 times the test concentration. Further, Recombinant Mouse Wnt-3a (R&D Systems, Inc. #1324-WN) was dissolved in a 0.1% BSA-PBA solution so as to have a concentration of 40 μg/mL, and the resultant solution was diluted with a LiCl-containing medium so as to have a concentration of 100 ng/mL, to prepare a Wnt-3a solution. To each well of the HEK 293 cells cultured overnight in the LiCl-containing medium, 10 μL each of the solution of the compound to be tested was added, followed by culturing in the 5% CO2 incubator for 2 hours (the final concentration of the compound to be tested: 3-0.03 μM). Thereafter, 10 μL each of the Wnt-3a solution was added to the respective wells, followed by further culturing for 5 hours.
Using ONE-Glo™ Luciferase Assay System (Promega Corporation, No. E6110), the luciferase activity of the cells in the wells was measured by a microplate reader (Synergy H1, BioTek Instruments, Inc.) An IC50 value was calculated from the luminescence intensity of each compound concentration, supposing that the luminescence intensity of a group with no addition of the compound and with Wnt-3a stimulation was 100%, and that the luminescence intensity of a group with no addition of the compound and with no Wnt-3a stimulation was 0%.
As for `O[C@H]1CC[C@@H](Oc2cccc3cnc(Nc4ccc5[nH]c(CN6CCCC6)nc5c4)nc23)CC1` [Example 13, cis-4-[(2-{[2-(pyrrolidin-1-ylmethyl)-1H-benzo[d]imidazol-5-yl]amino}quinazolin-8-yl)oxy]cyclohexanol], the IC50 is less than 0.3 µM.
On to `O[C@H]1CC[C@@H](Oc2cccc3cnc(Nc4ccc5cnccc5c4)nc23)CC1` [Example 39, cis-4-{[2-(isoquinolin-6-ylamino)quinazolin-8-yl]oxy}cyclohexanol], for which the IC50 lay in the range of 0.3 to 1 µM.
The value for `O[C@H]1CC[C@@H](Oc2cccc3cnc(Nc4ccc5scnc5c4)nc23)CC1` [Example 36, cis-4-{[2-(benzo[d]thiazol-5-ylamino)quinazolin-8-yl]oxy}cyclohexanol] was less than 0.3 µM; that for `OCc1n[nH]c2cc(Nc3ncc4ccc(F)c(O[C@H]5CC[C@@H](O)CC5)c4n3)ccc12` [Example 44, cis-4-[(7-fluoro-2-{[3-(hydroxymethyl)-1H-indazol-6-yl]amino}quinazolin-8-yl)oxy]cyclohexanol] was less than 0.3 µM.
With `C[C@H](O)c1nc2ccc(Nc3ncc4cccc(O[C@H]5CC[C@@H](O)CC5)c4n3)cc2[nH]1` [Example 27, cis-4-{[2-({2-[(S)-1-hydroxyethyl]-1H-benzo[d]imidazol-6-yl}amino)quinazolin-8-yl]oxy}cyclohexanol], the IC50 is 0.3 to 1 µM.
The value for `Cc1ccc2cc(Nc3ncc4cccc(O[C@H]5CC[C@@H](O)CC5)c4n3)ccc2n1` [Example 38, cis-4-({2-[(2-methylquinolin-6-yl)amino]quinazolin-8-yl}oxy)cyclohexanol] was 0.3 to 1 µM; that for `O[C@H]1CC[C@@H](Oc2cccc3cnc(Nc4cccc5cnccc45)nc23)CC1` [Example 41, cis-4-{[2-(isoquinolin-5-ylamino)quinazolin-8-yl]oxy}cyclohexanol] was 0.3 to 1 µM; that for `O[C@H]1CC[C@@H](Oc2cc(F)cc3cnc(Nc4ccc5nc[nH]c5c4)nc23)CC1` [Example 32, cis-4-({2-[(1H-benzo[d]imidazol-6-yl)amino]-6-fluoroquinazolin-8-yl}oxy)cyclohexanol] was 0.3 to 1 µM.
In the case of `O[C@H]1CC[C@@H](Oc2cccc3cnc(Nc4ccc5ncccc5c4)nc23)CC1` [Example 35, cis-4-{[2-(quinolin-6-ylamino)quinazolin-8-yl]oxy}cyclohexanol], the IC50 lay in the range of 0.3 to 1 µM.
The value for `O[C@H]1CC[C@@H](Oc2c(Br)ccc3cnc(Nc4ccc5nc[nH]c5c4)nc23)CC1` [Example 31] was less than 0.3 µM; that for `O[C@H]1CC[C@@H](Oc2cccc3cnc(Nc4ccc5nc(C(F)(F)F)[nH]c5c4)nc23)CC1` [Example 26, cis-4-((2-{[2-(trifluoromethyl)-1H-benzo[d]imidazol-6-yl]amino}quinazolin-8-yl)oxy)cyclohexanol] was 1 to 3 µM; that for `OCc1nc2cc(Nc3ncc4cccc(O[C@H]5CC[C@@H](O)CC5)c4n3)ccc2[nH]1` [Example 14, cis-4-[(2-{[2-(hydroxymethyl)-1H-benzo[d]imidazol-5-yl]amino}quinazolin-8-yl)oxy]cyclohexanol] was 0.3 to 1 µM.
Next, `Cc1nc2ccc(Nc3ncc4ccc(Br)c(O[C@H]5CC[C@@H](O)CC5)c4n3)cc2[nH]1` [Example 18, cis-4-({7-bromo-2-[(2-methyl-1H-benzo[d]imidazol-6-yl)amino]quinazolin-8-yl}oxy)cyclohexanol]: 0.3 to 1 µM; `Cc1nc2c(Br)cc(Nc3ncc4cccc(O[C@H]5CC[C@@H](O)CC5)c4n3)cc2[nH]1` [Example 19, cis-4-({2-[(4-bromo-2-methyl-1H-benzo[d]imidazol-6-yl)amino]quinazolin-8-yl}oxy)cyclohexanol]: 1 to 3 µM.
Next, `Cc1ccc2cnc(Nc3ccc4nc[nH]c4c3)nc2c1O[C@H]1CC[C@@H](O)CC1` [Example 17, cis-4-({2-[(1H-benzo[d]imidazol-6-yl)amino]-7-methylquinazolin-8-yl}oxy)cyclohexanol]: 0.3 to 1 µM; `O[C@H]1CC[C@@H](Oc2c(F)ccc3cnc(Nc4ccc5ncsc5c4)nc23)CC1` [Example 42, cis-4-{[2-(benzo[d]thiazol-6-ylamino)-7-fluoroquinazolin-8-yl]oxy}cyclohexanol]: less than 0.3 µM; `COCc1nc2ccc(Nc3ncc4cccc(O[C@H]5CC[C@@H](O)CC5)c4n3)cc2[nH]1` [Example 25, cis-4-[(2-{[2-(methoxymethyl)-1H-benzo[d]imidazol-6-yl]amino}quinazolin-8-yl)oxy]cyclohexanol]: 0.3 to 1 µM.
In the case of `OCc1cc(Nc2ncc3cccc(O[C@H]4CC[C@@H](O)CC4)c3n2)cc2[nH]cnc12` [Example 29, cis-4-[(2-{[4-(hydroxymethyl)-1H-benzo[d]imidazol-6-yl]amino}quinazolin-8-yl)oxy]cyclohexanol], the IC50 is less than 0.3 µM.
The value for `COc1ccc2c(Nc3ncc4cccc(O[C@H]5CC[C@@H](O)CC5)c4n3)ccnc2c1` [Example 46, cis-4-({2-[(7-methoxyquinolin-4-yl)amino]quinazolin-8-yl}oxy)cyclohexanol] was 0.3 to 1 µM.
With `Cc1cc2nc[nH]c2cc1Nc1ncc2cccc(O[C@H]3CC[C@@H](O)CC3)c2n1` [Example 30, cis-4-({2-[(5-methyl-1H-benzo[d]imidazol-6-yl)amino]quinazolin-8-yl}oxy)cyclohexanol], the IC50 fell in the range of 0.3 to 1 µM.
The value for `O[C@H]1CC[C@@H](Oc2cccc3cnc(Nc4ccnc5cc(F)ccc45)nc23)CC1` [Example 45, cis-4-({2-[(7-fluoroquinolin-4-yl)amino]quinazolin-8-yl}oxy)cyclohexanol] was 0.3 to 1 µM; that for `O[C@H]1CC[C@@H](Oc2cccc3cnc(Nc4ccnc5ccccc45)nc23)CC1` [Example 37, cis-4-{[2-(quinolin-4-ylamino)quinazolin-8-yl]oxy}cyclohexanol] was less than 0.3 µM; that for `Cc1nc2c(C)cc(Nc3ncc4cccc(O[C@H]5CC[C@@H](O)CC5)c4n3)cc2[nH]1` [Example 20, cis-4-({2-[(2,4-dimethyl-1H-benzo[d]imidazol-6-yl)amino]quinazolin-8-yl}oxy)cyclohexanol] was 0.3 to 1 µM.
The value for `O[C@H]1CC[C@@H](Oc2c(F)ccc3cnc(Nc4ccc5ncccc5c4)nc23)CC1` [Example 43, cis-4-{[7-fluoro-2-(quinolin-6-ylamino)quinazolin-8-yl]oxy}cyclohexanol] was less than 0.3 µM.
The value for `O[C@H]1CC[C@@H](Oc2cccc3cnc(Nc4ccc5ccncc5c4)nc23)CC1` [Example 40, cis-4-{[2-(isoquinolin-7-ylamino)quinazolin-8-yl]oxy}cyclohexanol] was 1 to 3 µM.
